Data: patent publication US12409171B2, “Pharmaceutically active pyrazolo-pyridone modulators of DCN1/2-mediated cullin neddylation” (UNIVERSITY OF KENTUCKY RESEARCH FOUNDATION, priority 2019, dated 2025)

Molecular target: DCN1 (Homo sapiens (Human), UniProt Q96GG9)
Test: TR-FRET binding assay (biotin-DCN1 / Ac-UBE2M12-AlexaFluor488)
Conditions: mean ± SD (n); read-out: DCN1_TRFRET Mean EC50
Outline: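 Biotinylated DCN1 binding to Ac-UBE2M12-AlexaFluor488 read by TR-FRET; assay cocktail pre-incubated 1 h at room temperature before compounds added from DMSO stocks by pin transfer. IC50 is the mean of three replicates ± SD; compounds tested in triplicate or more.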

Sequence of DCN1 (Q96GG9 whole entry): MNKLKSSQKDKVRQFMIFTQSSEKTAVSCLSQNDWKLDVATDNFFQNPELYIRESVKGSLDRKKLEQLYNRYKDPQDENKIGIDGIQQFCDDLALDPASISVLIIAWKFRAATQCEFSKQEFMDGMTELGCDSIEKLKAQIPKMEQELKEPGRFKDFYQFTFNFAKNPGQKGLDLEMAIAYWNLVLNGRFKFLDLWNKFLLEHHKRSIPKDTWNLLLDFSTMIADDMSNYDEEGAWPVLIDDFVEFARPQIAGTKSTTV

## CCN1C(=O)[C@@H](NC(=O)c2cccc(C(F)(F)F)c2)[C@@H](c2ccc(F)cc2)c2c(CNC(=O)CCOCCOCCNC(=O)CCCC[C@@H]3SC[C@@H]4NC(=O)N[C@@H]43)nn(-c3ccccc3)c21 [RG-0014159, N-[(4S,5S)-3-({3-[2-(2-{5-[(3aS,4S,6aR)-2-oxo-hexahydro-1H-thieno[3,4-d]imidazol-4-yl]pentanamido}ethoxy)ethoxy]propanamido}methyl)-7-ethyl-4-(4-fluorophenyl)-6-oxo-1-phenyl-1H,4H,5H,6H,7H-pyrazolo[3,4-b]pyridin-5-yl]-3-(trifluoromethyl)benzamide]
  EC50: 89.6 ± 10.9 nM

## CCN1C(=O)[C@@H](NC(=O)c2cccc(C)c2)[C@@H](c2ccc(F)cc2)c2c(C)nn(-c3ccc(F)cc3)c21 [RG-0008866, N-[(4S,5S)-7-ethyl-1,4-bis(4-fluorophenyl)-3-methyl-6-oxo-1H,4H,5H,6H,7H-pyrazolo[3,4-b]pyridin-5-yl]-3-methylbenzamide]
  EC50: 489 ± 18.5 nM

## CCN1C(=O)[C@@H](NC(=O)c2cccc(C(F)(F)F)c2)[C@@H](c2ccc(F)cc2)c2c(CNC(=O)CCOCCOCCOCCOCCNC(=O)CCCCC3SCC4NC(=O)NC43)nn(-c3ccccc3)c21 (stereo partly drawn) [RG-0014148, N-{[(4S,5S)-7-ethyl-4-(4-fluorophenyl)-6-oxo-1-phenyl-5-[3-(trifluoromethyl)benzamido]-1H,4H,5H,6H,7H-pyrazolo[3,4-b]pyridin-3-yl]methyl}-1-(5-{2-oxo-hexahydro-1H-thieno[3,4-d]imidazol-4-yl}pentanamido)-3,6,9,12-tetraoxapentadecan-15-amide]
  EC50: 102 ± 15.9 nM

## Cc1nn(-c2ccccc2)c2c1[C@H](c1ccc(F)cc1)[C@H](NC(=O)c1cccc(C(F)(F)F)c1)C(=O)N2CCNC(=O)OC(C)(C)C [RG-0014162, tert-butyl N-{2-[(4S,5S)-4-(4-fluorophenyl)-3-methyl-6-oxo-1-phenyl-5-[3-(trifluoromethyl)benzamido]-1H,4H,5H,6H,7H-pyrazolo[3,4-b]pyridin-7-yl]ethyl}carbamate]
  EC50: > 13600 nM

## CCN1C(=O)[C@@H](NC(=O)c2cccc(C(F)(F)F)c2)[C@@H](c2ccc(F)cc2)c2c(CN3CCC(F)CC3)nn(-c3ccccc3)c21 [RG-0014147, N-[(4S,5S)-7-ethyl-4-(4-fluorophenyl)-3-[(4-fluoropiperidin-1-yl)methyl]-6-oxo-1-phenyl-1H,4H,5H,6H,7H-pyrazolo[3,4-b]pyridin-5-yl]-3-(trifluoromethyl)benzamide]
  EC50: 112 ± 16 nM

## CCN1C(=O)[C@@H](NC(=O)c2cccc(C(F)(F)F)c2)[C@@H](c2ccc(F)cc2)c2c(CBr)nn(-c3ccccc3)c21 [RG-0014144, N-[(4S,5S)-3-(bromomethyl)-7-ethyl-4-(4-fluorophenyl)-6-oxo-1-phenyl-1H,4H,5H,6H,7H-pyrazolo[3,4-b]pyridin-5-yl]-3-(trifluoromethyl)benzamide]
  EC50: 186 ± 32.6 nM

## CCN1C(=O)[C@@H](NC(=O)c2cccc(C(F)(F)F)c2)[C@@H](c2ccc(F)cc2)c2c(CNCC(F)(F)F)nn(-c3ccccc3)c21 [RG-0014145, N-[(4S,5S)-7-ethyl-4-(4-fluorophenyl)-6-oxo-1-phenyl-3-{[(2,2,2-trifluoroethyl)amino]methyl}-1H,4H,5H,6H,7H-pyrazolo[3,4-b]pyridin-5-yl]-3-(trifluoromethyl)benzamide]
  EC50: 161 ± 13.1 nM

## CCN1C(=O)[C@@H](NC(=O)c2cccc(C(F)(F)F)c2)[C@@H](c2cc(C)cs2)c2c(C)nn(-c3ccccc3)c21 [RG-0013987, N-[(4S,5S)-7-ethyl-3-methyl-4-(4-methylthiophen-2-yl)-6-oxo-1-phenyl-1H,4H,5H,6H,7H-pyrazolo[3,4-b]pyridin-5-yl]-3-(trifluoromethyl)benzamide]
  EC50: 3100 ± 559 nM

## Cc1nn(-c2ccccc2)c2c1[C@H](c1ccc(F)cc1)[C@H](NC(=O)c1cccc(C(F)(F)F)c1)C(=O)N2CO [RG-0013981, N-[(4S,5S)-4-(4-fluorophenyl)-7-(hydroxymethyl)-3-methyl-6-oxo-1-phenyl-1H,4H,5H,6H,7H-pyrazolo[3,4-b]pyridin-5-yl]-3-(trifluoromethyl)benzamide]
  EC50: > 36500 nM
